Laboratory results taken from patent US20240343710A1, “HETEROCYCLIC COMPOUNDS AND METHODS OF USE THEREOF” (1cBio, Inc., priority 2023, published 2024).
Structures can show the parent of a compound that is named as a salt. Where two headings read alike, the source gives them in different places.

Tests used:
recombinant human PARP1 = recombinant human PARP1 (Homo sapiens, UniProt P09874); assay: PARP1 fluorescence polarization binding assay; settings: GST-tagged PARP1 20 nM, PARP1-FL probe 3 nM
Procedure: In some embodiments, the biological assay is described in the Examples herein. In some embodiments, the biological assay measures PARP-1 binding by way of fluorescence polarization measurements. In some embodiments, binding of a test compound to recombinant human PARP-1 reduces the amount of binding of a fluorescent probe, and consequently reduces the detected level of fluorescence polarization. In some test compound stock solutions are prepared in a solvent, e.g., DMSO, and are serially diluted into a range of concentrations, e.g., 15 concentrations, 14 concentrations, 13 concentrations, 12 concentrations, 11 concentrations, 10 concentrations, 9 concentrations, 8 concentrations, 7 concentrations, 6 concentrations, or 5 concentrations, by a dilution factor, e.g., a 10-fold dilution factor, a 9-fold dilution factor, an 8-fold dilution factor, a 7-fold dilution factor, a 6-fold dilution factor, a 5-fold dilution factor, a 4-fold dilution factor, a 3-fold dilution factor, or a 2-fold dilution factor. In some embodiments, the serial dilutions, e.g., 100 nL of serial dilution, 90 nL of serial dilution, 80 nL of serial dilution, 70 nL of serial dilution, 60 nL of serial dilution, 50 nL of serial dilution, 30 nL of serial dilution, 20 nL of serial dilution, or 10 nL of serial dilution, are added to a multi-welled plate, e.g., a 1536-well plate, a 384-well plate, or a 96-well plate. In some embodiments, PARP-1, e.g., GST-tagged PARP-1, is diluted in assay buffer, e.g., 50 μL of assay buffer, 40 μL of assay buffer, e.g., 30 μL of assay buffer, 20 μL of assay buffer, 10 μL of assay buffer, or 5 μL of assay buffer, and is added to the plate. In some embodiments, the plate is centrifuged, e.g., at 1000 rpm for 1 min, and incubated, e.g., incubated for 30 minutes at room temperature (RT). In some embodiments, a fluorescent probe, e.g., 10 μL of 6 nM PARP1-FL (TOCRIS, Cat #6461), is diluted in an assay buffer and is added to the plate. In some embodiments, the final concentrations of PARP-1 and fluorescent probe are 20 nM and 3 nM, respectively, in a total volume of 20 μL. In some embodiments, the plate is centrifuged, e.g., at 1000 rpm for 1 minute, and the assay plate is incubated, e.g., for 4 h at RT. In some embodiments, the samples in each well are read using a plate reader, e.g., an Envision instrument using excitation=480 nm, and emission wavelength=FITC FP-P pol 535 nm & FITC FP-S pol 535 nm). In some embodiments, percent inhibition is calculated from mP values using Inhibition (%)=[1−(mPc−mPL)/(mPH−mPL)]×100%, where mPc, mPL, and mPH are the mP values of test compound, Low controls, and High controls, respectively. In some embodiments, binding IC50 values are calculated using XLFit (equation 201: y=A+((B−A)/(1+((x/C)^D))), where A=bottom, B=top, C=IC50, and D=slope) with a floating top and bottom for curves.
Compounds of the present disclosure were tested in a PARP1 fluorescence polarization binding assay at Pharmaron (Beijing, P.R. China). In this biochemical assay, binding of test compound to recombinant human PARP1 reduces the amount of binding of a fluorescent probe, and consequently reduces the detected level of fluorescence polarization. Test compound stock solutions were prepared in DMSO and then serially diluted into 10 concentrations by 3-fold dilution in a 384-well plate using a TECAN EVO200. Alternatively, a single concentration was prepared. 60 nL of each dilution was transferred to the plate using an Echo550 (Labcyte), and then 10 μL 40 nM GST-tagged PARP1 (BPS Bioscience, Cat #80501), diluted in assay buffer (50 mM Tris pH 8.0, 0.001% Triton X-100, 10 mM MgCl2, 150 mM NaCl), was added to the plate. After a centrifugation at 1000 rpm for 1 min, the assay plate was incubated for 30 min at RT. 10 μL 6 nM PARP1-FL (TOCRIS, Cat #6461), diluted using assay buffer, was then added to the plate. The final concentrations of PARP1 and PARP1-FL were 20 nM and 3 nM, respectively, in a total volume of 20 μL. […]

[1] = system: DLD-1 BRCA2(−/−) colorectal adenocarcinoma cells; assay: Cell viability assay (Cell Titer-Glo, 7 days), DLD-1 BRCA2(−/−); format: cell-based; settings: Homo sapiens, 168 h, DLD-1 BRCA2(−/−) cells
Description: (§1) In some embodiments, the biological assay measures the effects that compounds of the present disclosure may have on the viability of cells, e.g., the viability of cancer cells. In some embodiments, DLD-1 wild-type and DLD-1 BRCA2(−/−) colorectal adenocarcinoma cells, an isogenic pair of cell lines differing in the presence and absence, respectively, of both BRCA2 alleles, are used to measure the effect of the disclosed compounds on the viability of cancer cells. In some embodiments, the cells are harvested during the logarithmic growth period, counted, and seeded at a specified count in the wells of a 96- or 384-well cell culture plate. In some embodiments, after seeding, the cells are incubated, e.g., at 37° C., 5% CO2 overnight. In some embodiments, the cells are treated with compounds, e.g., with serially diluted test compounds at 8-11 concentrations within a desired concentration range, e.g., from 1 nM-10 μM, for the generation of dose-response curves. In some embodiments, the plate is further incubated, e.g., for another 3-7 days in a humidified incubator at 37° C. and 5% CO2. In some embodiments, cell viability is assessed by luminescence measurement after addition of Cell Titer-Glo reagent (Promega, Madison, Wis.) according to the manufacturer's instructions. In some embodiments, cell viability IC50 values are calculated using XLFit, equation 201: y=A+((B−A)/(1+((x/C)^D))), where A=bottom, B=top, C=IC50, and D=slope. In some embodiments, the effects of the test compounds on the viability of other cell lines such as MDA-MB-436, MDA-MB-231, SUM149PT, HCC1395, and UWB1.289 are determined in an analogous method.
(§2) Compounds of the present disclosure were tested for their effects on the viability of cancer cells. DLD-1 wild-type and DLD-1 BRCA2(−/−) colorectal adenocarcinoma cells, an isogenic pair of cell lines differing in the presence and absence, respectively, of both BRCA2 alleles, were used. The cells were harvested during the logarithmic growth period, counted, and seeded at 50 cells/well for DLD-1 wild-type and 200 cells/well for DLD-1 BRCA2(−/−) in a 384-well cell culture plate. After seeding, cells were incubated at 37° C., 5% CO2 overnight. Cells were treated with serially diluted test compounds at 10 concentrations (e.g., from 1.5 nM-30 μM) for generation of dose response curves, or at a single concentration. The plate was further incubated for another 7 days in a humidified incubator at 37° C. and 5% CO2. Cell viability was assessed by luminescence measurement after addition of Cell Titer-Glo reagent (Promega, Madison, Wis.) according to the manufacturer's instructions. Cell viability IC50 values were calculated using XLFit, equation 201. y=A+((B−A)/(1+((x/C)^D))), where A=bottom, B=top, C=IC50, and D=slope. IC50 values are shown in Table B and are presented in ranges, in which “+++”<300 nM, 300 nM≤“++”<3000 nM, and “+”≥3000 nM. Values for percent inhibition at 10 μM are also shown in Table B and are presented in ranges, in which “***”≥67%, 33%: “**”≤67%, and “*”<33%. Effects of the test compounds on the viability of other cell lines such as MDA-MB-436, MDA-MB-231, SUM149PT, HCC1395, and UWB1.289 are determined in an analogous method.

[2] = system: DLD-1 wild-type colorectal adenocarcinoma cells; assay: Cell viability assay (Cell Titer-Glo, 7 days), DLD-1 wild-type; format: cell-based; settings: Homo sapiens, 168 h, DLD-1 wild-type cells, read-out: DLD-1 wild-type % inh at 10 μM
Description: as §1, §2

recombinant human PARP2 = recombinant human PARP2 (Homo sapiens, UniProt Q9UGN5); assay: PARP2 fluorescence polarization binding assay; settings: read-out: PARP2 % inh at 10 μM
Chain of recombinant human PARP2 (Q9UGN5 whole entry): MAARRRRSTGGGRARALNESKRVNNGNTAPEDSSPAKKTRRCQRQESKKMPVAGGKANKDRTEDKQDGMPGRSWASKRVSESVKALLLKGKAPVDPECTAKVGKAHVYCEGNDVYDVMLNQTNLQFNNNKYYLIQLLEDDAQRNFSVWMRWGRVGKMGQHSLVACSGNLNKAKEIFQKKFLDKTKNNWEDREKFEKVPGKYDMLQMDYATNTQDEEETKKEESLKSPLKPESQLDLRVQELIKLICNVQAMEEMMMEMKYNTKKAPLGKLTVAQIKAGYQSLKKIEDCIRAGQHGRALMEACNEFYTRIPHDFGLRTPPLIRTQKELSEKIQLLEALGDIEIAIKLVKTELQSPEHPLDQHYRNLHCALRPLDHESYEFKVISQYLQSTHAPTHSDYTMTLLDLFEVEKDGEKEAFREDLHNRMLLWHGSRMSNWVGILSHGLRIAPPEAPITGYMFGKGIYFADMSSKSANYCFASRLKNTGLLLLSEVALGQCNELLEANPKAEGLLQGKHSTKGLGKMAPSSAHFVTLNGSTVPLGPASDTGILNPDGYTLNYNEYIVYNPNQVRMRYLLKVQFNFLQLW

[3] = percent inhibition at 10 μM, fluorescence polarization, GST-tagged PARP2 20 nM, PARP1-FL probe 3 nM

Chain of recombinant human PARP1 (P09874 whole entry): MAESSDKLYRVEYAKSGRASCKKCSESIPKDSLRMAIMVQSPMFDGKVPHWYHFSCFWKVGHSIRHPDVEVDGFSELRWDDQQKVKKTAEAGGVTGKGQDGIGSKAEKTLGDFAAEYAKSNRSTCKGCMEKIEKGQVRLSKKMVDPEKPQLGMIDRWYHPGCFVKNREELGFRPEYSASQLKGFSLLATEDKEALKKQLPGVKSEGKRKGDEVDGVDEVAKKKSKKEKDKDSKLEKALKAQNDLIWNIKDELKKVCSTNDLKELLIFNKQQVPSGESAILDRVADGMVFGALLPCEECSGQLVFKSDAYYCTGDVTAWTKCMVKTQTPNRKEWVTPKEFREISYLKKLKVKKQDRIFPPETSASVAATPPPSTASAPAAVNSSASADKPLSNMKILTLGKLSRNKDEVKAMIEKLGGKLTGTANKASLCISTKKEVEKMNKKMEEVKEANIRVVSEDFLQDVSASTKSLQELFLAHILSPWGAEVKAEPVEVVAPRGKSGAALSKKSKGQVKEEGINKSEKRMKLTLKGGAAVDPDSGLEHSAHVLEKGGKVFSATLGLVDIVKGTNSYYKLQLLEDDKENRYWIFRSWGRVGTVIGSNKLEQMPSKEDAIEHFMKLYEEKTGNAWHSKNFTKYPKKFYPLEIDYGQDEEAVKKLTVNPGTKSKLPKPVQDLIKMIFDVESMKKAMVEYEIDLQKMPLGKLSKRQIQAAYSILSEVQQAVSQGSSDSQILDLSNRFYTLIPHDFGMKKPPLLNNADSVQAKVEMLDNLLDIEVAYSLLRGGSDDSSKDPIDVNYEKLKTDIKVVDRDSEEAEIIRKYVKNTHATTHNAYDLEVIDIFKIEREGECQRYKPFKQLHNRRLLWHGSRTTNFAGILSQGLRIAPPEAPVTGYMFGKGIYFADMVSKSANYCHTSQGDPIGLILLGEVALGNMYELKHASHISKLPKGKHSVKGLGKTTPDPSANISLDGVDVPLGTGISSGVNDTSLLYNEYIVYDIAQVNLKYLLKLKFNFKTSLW

Compound | IC50 (recombinant human PARP1) [nM] | IC50 [1] [nM] | inhibition at 10 µM [2] [%] | inhibition at 10 µM (recombinant human PARP2; [3]) [%] | inhibition at 10 µM (recombinant human PARP2) [%]
CCNC(=O)Nc1cc(CN2CCN(c3ccc(C(=O)NC#N)nc3C)CC2)ccn1 [Compound 3, N-cyano-5-(4-((2-(3-ethylureido)pyridin-4-yl)methyl)piperazin-1-yl)-6-methylpicolinamide dihydrochloride] | ≥ 3000 |  |  |  | 
CCNC(=O)Nc1cc(CN2CCN(c3ccc(C(=O)CC)nc3C)CC2)ccn1 [Compound 7, 1-ethyl-3-(4-((4-(2-methyl-6-propionylpyridin-3-yl)piperazin-1-yl)methyl)pyridin-2-yl)urea] | < 100 | 300 to 3000 | 33 to 67 | < 33 | 
CCNC(=O)Nc1cc(CN2CCN(c3ccc(C(=O)NC)nc3F)CC2)ccn1 [Compound 9, 5-(4-((2-(3-ethylureido)pyridin-4-yl)methyl)piperazin-1-yl)-6-fluoro-N-methylpicolinamide] | < 100 | < 300 | < 33 | < 33 | 
CCNC(=O)Nc1cc(CN2CCN(c3ccc(C(=O)NC)nc3C)CC2)ccn1 [Compound 13, 5-(4-((2-(3-ethylureido)pyridin-4-yl)methyl)piperazin-1-yl)-N,6-dimethylpicolinamide formate] | < 100 | < 300 | < 33 |  | < 33
CCNC(=O)Nc1cc(CN2CCN(c3ccc(C(=O)NC)nc3C(F)(F)F)CC2)ccn1 [Compound 21, 5-(4-((2-(3-ethylureido)pyridin-4-yl)methyl)piperazin-1-yl)-N-methyl-6-(trifluoromethyl)picolinamide trifluoroacetate] | < 100 | < 300 | < 33 |  | < 33
CCNC(=O)Nc1cc(CN2CCN(c3ccc(C(=O)NC)nc3C#N)CC2)ccn1 [Compound 22, 6-cyano-5-(4-((2-(3-ethylureido)pyridin-4-yl)methyl)piperazin-1-yl)-N-methylpicolinamide] | < 100 | < 300 | < 33 | 33 to 67 | 
CCNC(=O)Nc1cc(CN2CCN(c3ccc(-n4cccn4)nc3C)CC2)ccn1 [Compound 24, 1-ethyl-3-(4-((4-(2-methyl-6-(1H-pyrazol-1-yl)pyridin-3-yl)piperazin-1-yl)methyl)pyridin-2-yl)urea] | < 100 | < 300 | < 33 | < 33 | 
CCNC(=O)Nc1cc(CN2CCN(c3ccc(C(=O)NC)nc3C)CC2=O)ccn1 [Compound 29, 5-(4-((2-(3-ethylureido)pyridin-4-yl)methyl)-3-oxopiperazin-1-yl)-N,6-dimethylpicolinamide] | 100 to 3000 | ≥ 3000 | < 33 | < 33 | 
CCNC(=O)Nc1cc(CN2CCN(c3ccc(C(=O)NC)c(=O)n3C)CC2)ccn1 [Compound 30, 6-(4-((2-(3-ethylureido)pyridin-4-yl)methyl)piperazin-1-yl)-N,1-dimethyl-2-oxo-1,2-dihydropyridine-3-carboxamide] | < 100 | 300 to 3000 | < 33 | < 33 | 
CCNS(=O)(=O)Nc1cc(CN2CCN(c3ccc(C(=O)NC)nc3C)CC2)ccn1 [Compound 105, 5-(4-((2-((N-ethylsulfamoyl)amino)pyridin-4-yl)methyl)piperazin-1-yl)-N,6-dimethylpicolinamide] | ≥ 3000 |  |  | < 33 | 
CCNC(=O)Nc1cc(CN2CCN(c3ccc(C(=O)NC)nc3C)CC2)no1 [Compound 279, 5-(4-((5-(3-ethylureido)isoxazol-3-yl)methyl)piperazin-1-yl)-N,6-dimethylpicolinamide] | < 100 |  |  |  | 
CNC(=O)C(=O)Nc1cc(CN2CCN(c3ccc(C(=O)NC)nc3C)CC2)ns1 [Compound 280, N1-methyl-N2-(3-((4-(2-methyl-6-(methylcarbamoyl)pyridin-3-yl)piperazin-1-yl)methyl)isothiazol-5-yl) oxalamide formate] | ≥ 3000 |  |  |  | 
CCNC(=O)Nc1cc(CN2CCN(c3ccc(C(=O)NC)nc3C)CC2)n(C)n1 [Compound 281, 5-(4-((3-(3-ethylureido)-1-methyl-1H-pyrazol-5-yl)methyl)piperazin-1-yl)-N,6-dimethylpicolinamide trihydrochloride] | < 100 |  |  |  | 
